Measured values taken from PubChem BioAssay (NCI).
Where “and” joins values, the source holds several entries; their conditions need not be identical. Equal entries are not always repeated.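 1) Cells in 96-well plates. 2) Compound, 48 h, 5 concentrations. 3) Linear interpolation between surrounding doses. 4) Unreached endpoint = highest concentration. TGI denotes the concentration required for complete inhibition of growth.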

Assays:
Experiment in all cases: NCI tumour cell line growth inhibition, 48 h
DMS 114 small cell lung = system: DMS 114 small cell lung
HOP-62 NSCLC = system: HOP-62 NSCLC
DMS 273 small cell lung = system: DMS 273 small cell lung
XF 498 CNS = system: XF 498 CNS
OVCAR-3 ovarian = system: OVCAR-3 ovarian
MALME-3M melanoma = system: MALME-3M melanoma
UACC-62 melanoma = system: UACC-62 melanoma
OVCAR-8 ovarian = system: OVCAR-8 ovarian
CCRF-CEM leukemia = system: CCRF-CEM leukemia
HCC-2998 colon = system: HCC-2998 colon
IGROV1 ovarian = system: IGROV1 ovarian
LXFL 529 NSCLC = system: LXFL 529 NSCLC
RXF 393 renal = system: RXF 393 renal
TK-10 renal = system: TK-10 renal
SNB-78 CNS = system: SNB-78 CNS
A498 renal = system: A498 renal
HOP-18 NSCLC = system: HOP-18 NSCLC
UACC-257 melanoma = system: UACC-257 melanoma
EKVX NSCLC = system: EKVX NSCLC
SK-MEL-28 melanoma = system: SK-MEL-28 melanoma
UO-31 renal = system: UO-31 renal
SN12C renal = system: SN12C renal
NCI-H23 lung = system: NCI-H23 lung
K-562 leukemia = system: K-562 leukemia
HCT-116 colon = system: HCT-116 colon
A549 NSCLC = system: A549 NSCLC
SF-295 CNS = system: SF-295 CNS
MOLT-4 leukemia = system: MOLT-4 leukemia
COLO 205 colon = system: COLO 205 colon
SK-OV-3 ovarian = system: SK-OV-3 ovarian
SNB-19 CNS = system: SNB-19 CNS
786-0 renal = system: 786-0 renal
KM20L2 colon = system: KM20L2 colon
NCI-H522 lung = system: NCI-H522 lung
M19-MEL melanoma = system: M19-MEL melanoma
HCT-15 colon = system: HCT-15 colon
SF-539 CNS = system: SF-539 CNS
LOX IMVI melanoma = system: LOX IMVI melanoma
RPMI-8226 leukemia = system: RPMI-8226 leukemia
HL-60(TB) leukemia = system: HL-60(TB) leukemia
KM12 colon = system: KM12 colon
SK-MEL-2 melanoma = system: SK-MEL-2 melanoma
SR leukemia = system: SR leukemia
SNB-75 CNS = system: SNB-75 CNS
OVCAR-5 ovarian = system: OVCAR-5 ovarian
NCI-H460 lung = system: NCI-H460 lung
SW-620 colon = system: SW-620 colon
NCI-H226 lung = system: NCI-H226 lung
M14 melanoma = system: M14 melanoma
ACHN renal = system: ACHN renal
SK-MEL-5 melanoma = system: SK-MEL-5 melanoma
HT29 colon = system: HT29 colon
DLD-1 colon = system: DLD-1 colon
U251 CNS = system: U251 CNS
CAKI-1 renal = system: CAKI-1 renal
RXF-631 renal = system: RXF-631 renal
HOP-92 NSCLC = system: HOP-92 NSCLC
SF-268 CNS = system: SF-268 CNS

In the case of `CC(C)(C)C1CCC(O)(c2ccccc2)CC1` (stereo unspecified), the TGI (DMS 114 small cell lung) is reported as > 100 µM and 52.5 µM, the TGI (HOP-62 NSCLC) is reported as over 100 µM and the TGI (DMS 273 small cell lung) is reported as > 100 µM and 33.6 µM. For the same compound, the TGI (XF 498 CNS) was 22.9 µM, the TGI (OVCAR-3 ovarian) was > 100 µM and 41.7 µM and the TGI (MALME-3M melanoma) was > 100 µM and 63.2 µM. For the same compound, the TGI (UACC-62 melanoma) was > 100 µM and 45.1 µM, the TGI (OVCAR-8 ovarian) was > 100 µM and 46.9 µM and the TGI (CCRF-CEM leukemia) was over 100 µM. The TGI (HCC-2998 colon) was > 100 µM and 60 µM, the TGI (IGROV1 ovarian) was > 100 µM and 81.5 µM and the TGI (LXFL 529 NSCLC) was > 100 µM and 49.2 µM. For the same compound, the TGI (RXF 393 renal) was > 100 µM and 41.8 µM, the TGI (TK-10 renal) was > 100 µM and 53.1 µM and the TGI (SNB-78 CNS) was > 100 µM and 57 µM. The TGI (A498 renal) was > 100 µM and 51.4 µM, the TGI (HOP-18 NSCLC) was over 100 µM and the TGI (UACC-257 melanoma) was > 100 µM and 48.2 µM. The TGI (EKVX NSCLC) was > 100 µM and 75.3 µM, the TGI (SK-MEL-28 melanoma) was > 100 µM and 64.5 µM and the TGI (UO-31 renal) was over 100 µM. For the same compound, the TGI (SN12C renal) was > 100 µM and 34.7 µM, the TGI (NCI-H23 lung) was over 100 µM and the TGI (K-562 leukemia) was > 100 µM and 68.2 µM. The TGI (HCT-116 colon) was > 100 µM and 47.9 µM, the TGI (A549 NSCLC) was > 100 µM and 89.2 µM and the TGI (SF-295 CNS) was over 100 µM. The TGI (MOLT-4 leukemia) was > 100 µM and 39.5 µM, the TGI (COLO 205 colon) was > 100 µM and 31.7 µM and the TGI (SK-OV-3 ovarian) was over 100 µM. The TGI (SNB-19 CNS) was over 100 µM, the TGI (786-0 renal) was > 100 µM and 41.6 µM and the TGI (KM20L2 colon) was > 100 µM and 31.7 µM. The TGI (NCI-H522 lung) was > 100 µM and 55.1 µM, the TGI (M19-MEL melanoma) was > 100 µM and 41.6 µM and the TGI (HCT-15 colon) was > 100 µM and 52.4 µM. For the same compound, the TGI (SF-539 CNS) was > 100 µM and 45.4 µM, the TGI (LOX IMVI melanoma) was > 100 µM and 30.3 µM and the TGI (RPMI-8226 leukemia) was > 100 µM and 66.6 µM. The TGI (HL-60(TB) leukemia) was 66.8 µM and 32.5 µM, the TGI (KM12 colon) was > 100 µM and 63.6 µM and the TGI (SK-MEL-2 melanoma) was > 100 µM and 28.4 µM. For the same compound, the TGI (SR leukemia) was > 100 µM and 33 µM, the TGI (SNB-75 CNS) was > 100 µM and 60 µM and the TGI (OVCAR-5 ovarian) was over 100 µM. For the same compound, the TGI (NCI-H460 lung) was > 100 µM and 55.8 µM, the TGI (SW-620 colon) was > 100 µM and 40.1 µM and the TGI (NCI-H226 lung) was > 100 µM and 43 µM. For the same compound, the TGI (M14 melanoma) was > 100 µM and 42.8 µM, the TGI (ACHN renal) was > 100 µM and 59.9 µM and the TGI (SK-MEL-5 melanoma) was > 100 µM and 28.5 µM. The TGI (HT29 colon) was > 100 µM and 30.2 µM, the TGI (DLD-1 colon) was > 100 µM and 75.5 µM and the TGI (U251 CNS) was > 100 µM and 32.3 µM.
Compound `C/C=C1/C=CC2c3[nH]c4ccccc4c3CCN2C1` (stereo unspecified) has a TGI (DMS 114 small cell lung) of over 400 µM, a TGI (HOP-62 NSCLC) of over 400 µM and a TGI (DMS 273 small cell lung) of over 400 µM. For the same compound, the TGI (XF 498 CNS) was over 400 µM, the TGI (OVCAR-3 ovarian) was over 400 µM and the TGI (MALME-3M melanoma) was over 400 µM. For the same compound, the TGI (UACC-62 melanoma) was over 400 µM, the TGI (OVCAR-8 ovarian) was over 400 µM and the TGI (CCRF-CEM leukemia) was over 400 µM. For the same compound, the TGI (HCC-2998 colon) was over 400 µM, the TGI (CAKI-1 renal) was over 400 µM and the TGI (IGROV1 ovarian) was over 400 µM. The TGI (LXFL 529 NSCLC) was over 400 µM, the TGI (RXF 393 renal) was over 400 µM and the TGI (TK-10 renal) was over 400 µM. It also gave a TGI (HOP-18 NSCLC) of 279 µM, a TGI (UACC-257 melanoma) of over 400 µM and a TGI (EKVX NSCLC) of over 400 µM. The TGI (SK-MEL-28 melanoma) was over 400 µM, the TGI (SN12C renal) was over 400 µM and the TGI (RXF-631 renal) was over 400 µM. It also gave a TGI (NCI-H23 lung) of over 400 µM, a TGI (K-562 leukemia) of over 400 µM and a TGI (HCT-116 colon) of over 400 µM. It also gave a TGI (A549 NSCLC) of over 400 µM, a TGI (SF-295 CNS) of over 400 µM and a TGI (MOLT-4 leukemia) of over 400 µM. For the same compound, the TGI (COLO 205 colon) was over 400 µM, the TGI (SK-OV-3 ovarian) was over 400 µM and the TGI (SNB-19 CNS) was over 400 µM. It also gave a TGI (786-0 renal) of over 400 µM, a TGI (KM20L2 colon) of over 400 µM and a TGI (NCI-H522 lung) of over 400 µM. For the same compound, the TGI (M19-MEL melanoma) was over 400 µM, the TGI (HCT-15 colon) was over 400 µM and the TGI (HOP-92 NSCLC) was over 400 µM. The TGI (SF-539 CNS) was over 400 µM, the TGI (LOX IMVI melanoma) was over 400 µM and the TGI (SF-268 CNS) was over 400 µM. For the same compound, the TGI (RPMI-8226 leukemia) was over 400 µM, the TGI (HL-60(TB) leukemia) was over 400 µM and the TGI (KM12 colon) was over 400 µM. The TGI (SK-MEL-2 melanoma) was over 400 µM, the TGI (SR leukemia) was over 400 µM and the TGI (NCI-H460 lung) was over 400 µM. The TGI (SW-620 colon) was over 400 µM, the TGI (NCI-H226 lung) was over 400 µM and the TGI (ACHN renal) was over 400 µM. The TGI (SK-MEL-5 melanoma) was over 400 µM, the TGI (HT29 colon) was over 400 µM and the TGI (DLD-1 colon) was over 400 µM. It also gave a TGI (U251 CNS) of over 400 µM.
